From US20160184230A1, “MELT-PROCESSED POLYMERIC CELLULAR DOSAGE FORM” (priority 2014, published 2016)

Assay: Compression tests of solid excipient (ASTM D695-10)
Format: physicochemical
Conditions: compression-molded sample
Protocol: Compression tests were performed on pure PEG and PEO specimen. The ASTM standard test method for compressive properties of rigid plastics, ASTM D695-10, was used as the protocol to execute compression tests. The testing machine was a Zwick Roell Z2.5 with a 2.5 kN load cell (Zwick GmbH & Co. KG, Ulm, Germany), equipped with compression platens. A speed of 1.3 mm/min was applied for the platens to move relatively towards each other.

Compressive strength: 0.8 MPa
Strain at fracture: <0.02
SMILES: OC[C@@H](O)[C@@H](O)[C@H](O)[C@H](O)CO [Mannitol]
